How the values were obtained:
MDA-MB-231 cells = experiment: Survival MTT assay; type: cell-based; settings: Homo sapiens, 72 hours, read-out: MDA-MB231 EC50
Method: (§1) One day prior the treatment with compound, 2000 to 4000 cells per well were plated in a tissue culture treated 96 well format dish with 100 uL of media and incubated at 37° C., 5% CO2. On the day of compound treatment, compounds were diluted with cell culture media to a working stock concentration of 2×. 100 ul of diluted compound were then added to each well. The treated plate was incubated for 72 hours at 37° C., 5% CO2. Upon incubation, the cell viability was assessed as follows; 20 uL of MTT reagent (5 mg/mL) were added per well to cell plate. The plate was incubated for 2 hrs at 37° C. in presence of 5% CO2. The supernatant was then removed from the plate and 100 uL of isopropanol was added. The absorbance was measured in a TECAN spectrophotometer at 570 nm. The percentage of viability was expressed in percentage of the signal obtained with non treated cells.

SKOV-3 cells = experiment: Survival MTT assay; type: cell-based; settings: Homo sapiens, SK-OV-3, 72 hours
Method: as §1

HCT116 colorectal cells = experiment: Potentiation of TRAIL efficacy in survival assay; type: cell-based, human; settings: 10 nM of compound
Method: Survival assays were preformed on the following transformed human cancer cell lines, MDA-MB-231, SKOV-3, H460, PC3, HCT-116, and SW480 cells. Cells were seeded in 96 well plates at a respective density of 5000 and 2000 cells per well and incubated at 37° C. in presence of 5% CO2 for 24 hours. Selected compounds were diluted into the media at various concentration ranging from 0.00001 uM up to 100 uM. Diluted compounds were added to the culture media. For the MDA-MB-231 SKOV3, H460, PC3, HCT-116, and SW480 cells, the compounds were added either alone or in presence of 1-3 ng/ml of TRAIL. After 48-72 hours cellular viability was evaluated by MTS based assays. A solution of [3-(4,5-dimethylthiazol-2-yl)-5-(3-carboxymethoxyphenyl)-2-(4-sulfophenyl)-2H-tetrazolium, inner salt; MTS] was added onto cells for a period of 1 to 4 hours. Upon incubation the amount of converted MTS was evaluated using a Tecan spectrophotometer set at 570 nm.

c-IAP1 = target: T1, c-IAP1 (Homo sapiens, UniProt Q13490); experiment: Detection of c-IAP1 in cells by western blotting; type: cell-based; settings: HCT116 cells, overnight treatment
T1 construct: endogenous in cells; host or cells: HCT116
Method: Detection of cell expressed XIAP and PARP were done by western blotting. Cells were plated at 300 000 cells/well in a 60 mm wells (6 wells plate dish). The next day the cells were treated with selected compound at the indicated concentration. […] The resulting pellet was rinsed twice with cold TBS. The final washed pellet of cells was the lysed with 250 ul Lysis buffer (NP-40, glycerol, 1% of a protease inhibitor cocktail (Sigma)), placed at 4° C. for 25 min with gentle shaking. The cells extract was centrifuged at 4° C. for 10 min at 10 000 rpm. Both the supernatant and the pellet were kept for western blotting analysis as described below. From the supernatant, the protein content was evaluated and about 50 ug of protein was fractionated onto a 10% SDS-PAGE. Pellets were washed with the lysis buffer and re-suspend into 50 ul of Lamelli buffer 1×, boiled and fractionated on SDS-PAGE. Upon electrophoresis each gel was electro-transferred onto a nitrocellulose membrane at 0.6 A for 2 hours. Membrane non-specific sites were blocked for 1 hours with 5% Skim milk in TBST (TBS containing 0.1% (v/v) Tween-20) at RT. For protein immuno-detection, membranes were incubated overnight with primary antibodies raised against various IAPs or caspase-3 or caspase-9 primary antibodies were incubated at 4° C. with shaking at dilutions as follows:
Upon overnight incubation, the membranes received three washes of 15 min in TBST then were incubated for 1 hour at room temperature in the presence of a secondary antibody coupled with HRP-enzyme (Chemicon) and diluted at 1/5 000. Upon incubation each membrane were washed three times with TBST and the immunoreactive bands were detected by addition of a luminescent substrate (ECL kit Amersham) and capture of signal on a X-RAY film for various time of exposure.

selected cell lines = experiment: Hollow fiber in vivo model; settings: compared to fibers from vehicle treated control mice
Method: At day 1, selected cell lines are cultured and the fiber filled at a cell density of about 40,000 cells/fiber. At the day of operation (day 4), three fibers are implanted sub-cutaneous into 28-35 Nu/Nu CD-1 male mice. On day 5, mice start to receive daily injection via sub-cutaneous route of control vehicle or vehicle containing the selected compound at the appropriate concentration and/or injection of cytotoxic agent via intra-peritoneal route. Upon 4 days of consecutive treatments, the animals are sacrificed, each fiber is removed and the metabolic viability of the remaining cells determined by MTT assay. Efficacy of the compound is define as the difference between the vehicle-treated animal and the animal treated with the compound alone or the compound given in combination of the cytotoxic agent

A2780S ovarian cells = experiment: Potentiation of TRAIL efficacy in survival assay; type: cell-based; settings: 10 nM of compound

T1 sequence (Q13490 whole entry): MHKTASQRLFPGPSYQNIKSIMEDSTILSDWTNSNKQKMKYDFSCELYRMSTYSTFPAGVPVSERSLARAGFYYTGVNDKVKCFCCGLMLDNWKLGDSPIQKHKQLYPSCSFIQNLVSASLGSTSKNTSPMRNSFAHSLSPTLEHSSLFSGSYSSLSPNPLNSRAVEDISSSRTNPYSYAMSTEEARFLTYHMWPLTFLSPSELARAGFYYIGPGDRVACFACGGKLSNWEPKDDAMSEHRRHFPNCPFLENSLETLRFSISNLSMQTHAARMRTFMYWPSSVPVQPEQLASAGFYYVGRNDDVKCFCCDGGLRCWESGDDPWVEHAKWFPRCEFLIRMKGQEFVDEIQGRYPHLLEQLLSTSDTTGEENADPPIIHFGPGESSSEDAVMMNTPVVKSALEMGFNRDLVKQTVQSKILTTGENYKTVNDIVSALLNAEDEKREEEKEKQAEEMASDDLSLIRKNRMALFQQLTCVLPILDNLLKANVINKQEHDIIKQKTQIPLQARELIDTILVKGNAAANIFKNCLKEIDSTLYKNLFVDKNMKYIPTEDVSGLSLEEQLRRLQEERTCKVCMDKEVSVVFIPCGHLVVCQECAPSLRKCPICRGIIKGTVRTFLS

| SMILES | EC50 (MDA-MB-231 cells) | EC50 (SKOV-3 cells) | c-IAP1 levels (c-IAP1) | other results |
| --- | --- | --- | --- | --- |
| CN[C@@H](C)C(=O)N[C@H](C(=O)N1CCC[C@H]1CN(CCc1ccccc1)C(=O)Nc1ccc(NC(=O)N(CCc2ccccc2)C[C@@H]2CCCN2C(=O)[C@@H](NC(=O)[C@H](C)NC)C(C)(C)C)cc1)C(C)(C)C [Compound 20] | < 10 nM | 10 to 25 nM |  |  |
| CN[C@@H](C)C(=O)N[C@H](C(=O)N1CCC[C@H]1CN(C[C@H](C)c1ccccc1)C(=O)CCCCCCCCC(=O)N(C[C@@H]1CCCN1C(=O)[C@@H](NC(=O)[C@H](C)NC)C(C)(C)C)C[C@H](C)c1ccccc1)C(C)(C)C [Compound 21] | < 10 nM | < 10 nM |  |  |
| CN[C@@H](C)C(=O)N[C@H](C(=O)N1CCC[C@H]1CN(CCc1ccccc1)C(=O)c1ccc(C(=O)N(CCc2ccccc2)C[C@@H]2CCCN2C(=O)[C@@H](NC(=O)[C@H](C)NC)C(C)(C)C)s1)C(C)(C)C [Compound 26] | < 10 nM | 10 to 25 nM |  |  |
| CN[C@@H](C)C(=O)N[C@H](C(=O)N1CCC[C@H]1CN(CCc1ccc(F)cc1)C(=O)CCCCCCCCC(=O)N(CCc1ccc(F)cc1)C[C@@H]1CCCN1C(=O)[C@@H](NC(=O)[C@H](C)NC)C(C)(C)C)C(C)(C)C [Compound 29] | < 10 nM | 10 to 25 nM |  |  |
| CN[C@@H](C)C(=O)N[C@H](C(=O)N1CCC[C@H]1CN(CCc1ccccc1)C(=O)CNC(=O)C(=O)NCC(=O)N(CCc1ccccc1)C[C@@H]1CCCN1C(=O)[C@@H](NC(=O)[C@H](C)NC)C(C)(C)C)C(C)(C)C [Compound 31] | < 10 nM | < 10 nM | reduced | potentiated TRAIL efficacy (HCT116 colorectal cells): approximately 2 logs; decrease in MTT signal in fibers from treated mice (selected cell lines): 70% |
| CN[C@@H](C)C(=O)N[C@H](C(=O)N1CCC[C@H]1CN(CCc1ccccc1)C(=O)CNC(=O)c1ccc(C(=O)NCC(=O)N(CCc2ccccc2)C[C@@H]2CCCN2C(=O)[C@@H](NC(=O)[C@H](C)NC)C(C)(C)C)cc1)C(C)(C)C [Compound 35] | < 10 nM | < 10 nM |  | potentiated TRAIL efficacy (A2780S ovarian cells): approximately 2 logs |
| CN[C@@H](C)C(=O)N[C@H](C(=O)N1CCC[C@H]1CN(CCCCc1ccccc1)C(=O)CCCCCCCCC(=O)N(CCCCc1ccccc1)C[C@@H]1CCCN1C(=O)[C@@H](NC(=O)[C@H](C)NC)C(C)(C)C)C(C)(C)C [Compound 40] |  |  | reduced |  |
| CN[C@@H](C)C(=O)N[C@H](C(=O)N1CCC[C@H]1CN(CCc1ccccc1)C(=O)CNC(=O)c1cccc(C(=O)NCC(=O)N(CCc2ccccc2)C[C@@H]2CCCN2C(=O)[C@@H](NC(=O)[C@H](C)NC)C(C)(C)C)c1)C(C)(C)C [Compound 44] |  | < 10 nM | reduced |  |
| CN[C@@H](C)C(=O)N[C@H](C(=O)N1CCC[C@H]1CN(CCc1ccccc1)C(=O)CNC(=O)c1ccc(-c2ccc(C(=O)NCC(=O)N(CCc3ccccc3)C[C@@H]3CCCN3C(=O)[C@@H](NC(=O)[C@H](C)NC)C(C)(C)C)cc2)cc1)C(C)(C)C [Compound 45] |  | < 10 nM | reduced |  |
| CN[C@@H](C)C(=O)N[C@H](C(=O)N1CCC[C@H]1CN(CCc1ccccc1)C(=O)c1ccc2cc(C(=O)N(CCc3ccccc3)C[C@@H]3CCCN3C(=O)[C@@H](NC(=O)[C@H](C)NC)C(C)(C)C)ccc2c1)C(C)(C)C [Compound 56] |  | < 10 nM |  | decrease in MTT signal in fibers from treated mice (selected cell lines): 70% |
| CN[C@@H](C)C(=O)N[C@H](C(=O)N1CCC[C@H]1CN(CCc1ccc(C(F)(F)F)cc1)C(=O)CCCCCCCCC(=O)N(CCc1ccc(C(F)(F)F)cc1)C[C@@H]1CCCN1C(=O)[C@@H](NC(=O)[C@H](C)NC)C(C)(C)C)C(C)(C)C [Compound 67] |  |  | reduced |  |
| CN[C@@H](C)C(=O)N[C@H](C(=O)N1CCC[C@H]1CN(CCc1ccccc1)C(=O)CCNC(=O)c1ccc(C(=O)NCCC(=O)N(CCc2ccccc2)C[C@@H]2CCCN2C(=O)[C@@H](NC(=O)[C@H](C)NC)C(C)(C)C)cc1)C(C)(C)C [Compound 91] |  | 10 to 25 nM | reduced |  |
| CN[C@@H](C)C(=O)N[C@H](C(=O)N1CCC[C@H]1CN(Cc1cccc(C(F)(F)F)c1)C(=O)CCCCCCCCC(=O)N(Cc1cccc(C(F)(F)F)c1)C[C@@H]1CCCN1C(=O)[C@@H](NC(=O)[C@H](C)NC)C(C)(C)C)C(C)(C)C [Compound 100] |  |  | reduced |  |
